Assay results from ChEMBL document CHEMBL3351580, “Pyrano-isochromanones as IL-6 inhibitors: synthesis, in vitro and in vivo antiarthritic activity” (J Med Chem, 2014).
Active and inactive are the calls of the source. The rule behind the calls is not given here.

What was measured:
Mus musculus [1] = experiment: Antiinflammatory activity in BALB/c mouse assessed as serum TNFalpha level at 100 mg/kg, po qd for 5 days followed by LPS challenge 1 hr after last compound dose on fifth day and measured 4 hrs post LPS challenge by ELISA method (reference value: 717 +/- 218 pg/mL); format: functional
THP-1 [2] = experiment: Inhibition of LPS-induced IL6 production in human THP1 cells after 24 hrs; format: functional, cell-based; details: THP-1, 24 h
CYP2C19 = CYP2C19 (Homo sapiens, UniProt P33261); experiment: Inhibition of CYP2C19 (unknown origin) at 10 uM; format: ADME
Sequence of CYP2C19 (P33261 whole entry): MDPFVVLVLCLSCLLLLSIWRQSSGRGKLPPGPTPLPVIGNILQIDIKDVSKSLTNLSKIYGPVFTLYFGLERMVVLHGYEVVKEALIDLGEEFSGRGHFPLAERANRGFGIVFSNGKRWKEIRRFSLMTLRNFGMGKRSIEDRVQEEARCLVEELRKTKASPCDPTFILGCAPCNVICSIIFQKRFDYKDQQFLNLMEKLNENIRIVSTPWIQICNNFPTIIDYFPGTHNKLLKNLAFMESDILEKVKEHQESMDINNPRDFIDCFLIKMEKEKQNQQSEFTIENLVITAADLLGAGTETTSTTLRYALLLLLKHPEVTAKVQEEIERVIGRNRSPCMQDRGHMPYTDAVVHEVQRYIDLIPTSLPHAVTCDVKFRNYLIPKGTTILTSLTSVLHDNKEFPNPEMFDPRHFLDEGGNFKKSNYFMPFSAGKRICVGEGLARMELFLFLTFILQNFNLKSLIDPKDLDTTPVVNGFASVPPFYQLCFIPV

Cytochrome P450 2D6 = Cytochrome P450 2D6 (Homo sapiens, UniProt P10635); experiment: Activation of CYP2D6 (unknown origin) assessed as increase in enzyme activity at 10 uM; format: ADME
Sequence of Cytochrome P450 2D6 (P10635 whole entry): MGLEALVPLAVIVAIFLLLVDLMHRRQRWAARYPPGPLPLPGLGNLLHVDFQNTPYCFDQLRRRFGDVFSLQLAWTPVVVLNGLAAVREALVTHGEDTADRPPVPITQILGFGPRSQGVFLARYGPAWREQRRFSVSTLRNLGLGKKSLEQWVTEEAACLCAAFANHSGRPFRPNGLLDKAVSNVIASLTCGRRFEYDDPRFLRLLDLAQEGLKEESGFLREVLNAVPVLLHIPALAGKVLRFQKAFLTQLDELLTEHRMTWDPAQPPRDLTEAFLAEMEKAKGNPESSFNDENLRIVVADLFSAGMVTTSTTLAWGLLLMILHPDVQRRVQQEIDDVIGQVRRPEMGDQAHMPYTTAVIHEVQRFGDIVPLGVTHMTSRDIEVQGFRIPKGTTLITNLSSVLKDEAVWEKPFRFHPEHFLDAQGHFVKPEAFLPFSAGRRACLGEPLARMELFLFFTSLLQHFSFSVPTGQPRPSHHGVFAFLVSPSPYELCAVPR

Mus musculus [3] = experiment: Antiarthritic activity in DBA/1J mouse collagen-induced arthritis model assessed as reduction in anticollagen antibody IgG1 level at 3 to 30 mg/kg, po administered once daily for 49 days starting from onset of disease and measured after 14 days of disease onset by ELISA method; format: functional, organism-based
THP-1 [4] = experiment: Inhibition of LPS-induced TNFalpha production in human THP1 cells after 24 hrs; format: functional, cell-based; details: THP-1, 24 h
[5] = Therapeutic index, ratio of cytotoxic IC50 for human THP1 cells by MTT assay to IC50 for inhibition of LPS-induced IL6 production in human THP1 cells; format: cell-based, THP-1; details: read-out: Ratio IC50
Mus musculus [6] = experiment: Antiarthritic activity in DBA/1J mouse collagen-induced arthritis model assessed as reduction in anticollagen antibody IgG2a level at 3 to 30 mg/kg, po administered once daily for 49 days starting from onset of disease and measured after 14 days of disease onset by ELISA method; format: functional, organism-based
Mus musculus [7] = experiment: Immunosuppressive activity in BALB/c mouse assessed as reduction in SRBC-induced humoral immunity by measuring IgM level at 3 to 30 mg/kg, po administered once daily for 14 days measured 4 hrs post last dose; format: functional, organism-based
[8] = Apparent permeability from apical to basolateral side in human Caco2 cells; format: ADME, cell-based; details: Caco-2
CYP3A4 = CYP3A4 (Homo sapiens, UniProt P08684); experiment: Inhibition of CYP3A4 (unknown origin) at 10 uM; format: ADME
Sequence of CYP3A4 (P08684 whole entry): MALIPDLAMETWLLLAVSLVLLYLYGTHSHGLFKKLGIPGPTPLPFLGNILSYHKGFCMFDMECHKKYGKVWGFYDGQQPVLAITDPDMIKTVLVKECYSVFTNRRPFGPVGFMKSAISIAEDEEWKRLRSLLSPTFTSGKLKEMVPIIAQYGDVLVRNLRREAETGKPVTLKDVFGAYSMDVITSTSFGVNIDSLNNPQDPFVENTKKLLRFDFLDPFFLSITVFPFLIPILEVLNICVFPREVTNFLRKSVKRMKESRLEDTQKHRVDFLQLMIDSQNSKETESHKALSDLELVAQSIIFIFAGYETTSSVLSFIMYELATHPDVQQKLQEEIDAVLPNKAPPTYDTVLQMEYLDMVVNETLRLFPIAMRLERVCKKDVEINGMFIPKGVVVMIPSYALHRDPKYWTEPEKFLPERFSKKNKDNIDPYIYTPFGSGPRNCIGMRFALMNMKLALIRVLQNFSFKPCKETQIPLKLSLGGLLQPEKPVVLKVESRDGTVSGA

Mus musculus [9] = experiment: Antiarthritic activity in DBA/1J mouse collagen-induced arthritis model assessed as reduction in TNFalpha level at 3 to 30 mg/kg, po administered once daily for 49 days starting from onset of disease and measured after 3 to 49 days of disease onset by ELISA method; format: functional, organism-based
THP-1 [10] = experiment: Cytotoxicity against human THP1 cells after 24 hrs by MTT assay; format: cell-based; details: THP-1, 24 h
[11] = Solubility in SGF solution; format: physicochemical
[12] = Solubility in SIF solution; format: physicochemical
Mus musculus [13] = experiment: Immunosuppressive activity in BALB/c mouse assessed as reduction in SRBC-induced DTH response at 3 to 30 mg/kg, po administered once daily for 14 days measured 4 hrs post last dose; format: functional, organism-based
[14] = Solubility in PBS buffer; format: physicochemical
Mus musculus [15] = experiment: Antiarthritic activity in DBA/1J mouse collagen-induced arthritis model assessed as reduction in anticollagen antibody IgG2a level at 3 to 30 mg/kg, po administered once daily for 49 days starting from onset of disease and measured after 49 days of disease onset by ELISA method; format: functional, organism-based
Mus musculus [16] = experiment: Antiinflammatory activity in BALB/c mouse assessed as serum nitric oxide level at 10 mg/kg, po qd for 5 days followed by LPS challenge 1 hr after last compound dose on fifth day and measured 4 hrs post LPS challenge by Griess assay (reference value: 6.95 +/- 1.81 uM); format: functional
THP-1 [17] = experiment: Cytotoxicity against human THP1 cells after 48 hrs by MTT assay; format: cell-based; details: THP-1, 48 h
THP-1 [18] = experiment: Inhibition of LPS-induced nitric oxide production in human THP1 cells at 10 uM after 24 hrs by Griess assay; format: functional; details: THP-1, 24 h
[19] = Apparent permeability from basolateral to apical side in human Caco2 cells; format: ADME, cell-based; details: Caco-2
Mus musculus [20] = experiment: Antiarthritic activity in DBA/1J mouse collagen-induced arthritis model assessed as reduction in IL-1beta level at 3 to 30 mg/kg, po administered once daily for 49 days starting from onset of disease and measured after 3 to 49 days of disease onset by ELISA method; format: functional, organism-based
[21] = Inhibition of concanavalin A-induced cell proliferation of T cells (unknown origin) at 10 uM after 72 hrs by MTT assay; format: functional
Mus musculus [22] = experiment: Antiinflammatory activity in BALB/c mouse assessed as serum IL6 level at 10 mg/kg, po qd for 5 days followed by LPS challenge 1 hr after last compound dose on fifth day and measured 4 hrs post LPS challenge by ELISA method (reference value: 410 +/- 95 pg/mL); format: functional
Mus musculus [23] = experiment: Antiarthritic activity in BALB/c mouse assessed as reduction in SRBC-induced blood IL4 level administered orally once daily for 14 days measured 4 hrs post last dose by ELISA method; format: functional, organism-based
[24] = biological target: Inhibitor of NF-kappa-B kinase (IKK) (Homo sapiens) (UniProt O14920+O15111+Q9Y6K9); experiment: Inhibition of IKKbeta expression in human THP1 cells at 20 to 100 uM by Western blotting method; format: functional, cell-based; details: THP-1
Mus musculus [25] = experiment: Immunosuppressive activity in BALB/c mouse assessed as reduction in SRBC-induced humoral immunity by measuring IgG level at 3 to 30 mg/kg, po administered once daily for 14 days measured 4 hrs post last dose; format: functional, organism-based
Mus musculus [26] = experiment: Antiarthritic activity in DBA/1J mouse collagen-induced arthritis model assessed as reduction in anticollagen antibody IgG1 level at 3 to 30 mg/kg, po administered once daily for 49 days starting from onset of disease and measured after 49 days of disease onset by ELISA method; format: functional, organism-based
Mus musculus [27] = experiment: Antiarthritic activity in BALB/c mouse assessed as reduction in SRBC-induced blood IFNgamma level administered orally once daily for 14 days measured 4 hrs post last dose by ELISA method; format: functional, organism-based
Mus musculus [28] = experiment: Antiarthritic activity in BALB/c mouse assessed as reduction in SRBC-induced blood IL2 level administered orally once daily for 14 days measured 4 hrs post last dose by ELISA method; format: functional, organism-based
Mus musculus [29] = experiment: Antiarthritic activity in DBA/1J mouse collagen-induced arthritis model assessed as reduction in IL6 level at 3 to 30 mg/kg, po administered once daily for 49 days starting from onset of disease and measured after 3 to 49 days of disease onset by ELISA method; format: functional, organism-based
B-cell = experiment: Inhibition of LPS-induced cell proliferation of B cells (unknown origin) at 10 uM after 72 hrs by MTT assay; format: functional
Mus musculus [30] = experiment: Antiarthritic activity in DBA/1J mouse collagen-induced arthritis model assessed as reduction in paw swelling at 30 mg/kg, po administered once daily for 49 days starting from onset of disease; format: functional; details: 1176 h
Mus musculus [31] = experiment: Antiinflammatory activity in BALB/c mouse assessed as serum nitric oxide level at 100 mg/kg, po qd for 5 days followed by LPS challenge 1 hr after last compound dose on fifth day and measured 4 hrs post LPS challenge by Griess assay (reference value: 6.95 +/- 1.81 uM); format: functional
THP-1 [32] = experiment: Inhibition of LPS-induced IL-1beta production in human THP1 cells at 10 uM after 24 hrs; format: functional; details: THP-1, 24 h

- IC50 (THP-1 [2]): 0.166 µM
- inhibition at 10 µM (CYP2C19): 6%
- Activity (Cytochrome P450 2D6): 36%
- IC50 (THP-1 [4]): 13.4 µM
- Papp A→B [8]: 0.72 ×10⁻⁶ cm/s
- inhibition at 10 µM (CYP3A4): 15%
- solubility [11]: > 1500 µg/mL
- solubility [12]: > 1500 µg/mL
- solubility [14]: > 1500 µg/mL
- Papp B→A [19]: 1.59 ×10⁻⁶ cm/s
- inhibition [24]: Active
SMILES: CCN(CC)Cc1c(O)c(OC)c(O)c2c1C(=O)O[C@@H]1[C@@H](O)[C@H](O)[C@@H](CO)O[C@@H]21
- Activity (Mus musculus [1]): 388 pg/mL
- inhibition (Mus musculus [3]): Active
- selectivity ratio [5]: > 400
- inhibition (Mus musculus [6]): Active
- inhibition (Mus musculus [7]): Active
- inhibition (Mus musculus [9]): Active
- IC50 (THP-1 [10]): 110 µM
- inhibition (Mus musculus [13]): Active
- inhibition (Mus musculus [15]): Active
- Activity (Mus musculus [16]): 5 µM
- IC50 (THP-1 [17]): 77 µM
- inhibition at 10 µM (THP-1 [18]): 41%
- inhibition (Mus musculus [20]): Active
- inhibition at 10 µM [21]: 53.7%
- Activity (Mus musculus [22]): 102 pg/mL
- inhibition (Mus musculus [23]): Dose-dependent effect
- inhibition (Mus musculus [25]): Active
- inhibition (Mus musculus [26]): Active
- inhibition (Mus musculus [27]): Dose-dependent effect
- inhibition (Mus musculus [28]): Dose-dependent effect
- inhibition (Mus musculus [29]): Active
- inhibition at 10 µM (B-cell): 47.9%
- inhibition in vivo at 30 mg/kg (Mus musculus [30]): 28%
- Activity (Mus musculus [31]): 3 µM
- inhibition at 10 µM (THP-1 [32]): 41%
